Measured values taken from paper PMC6796385, “Characterizing potential repelling volatiles for “push-pull” strategy against stem borer: a case study in Chilo auricilius” (BMC Genomics, 2019).

Biological target: CSP8 (chemosensory protein 8)
Test: direct fluorescence titration of purified CSP8 with the fluorescent probe, Scatchard plot
Format: binding, Chilo auricilius

c1ccc(Nc2cccc3ccccc23)cc1 [1-NPN, N-phenyl-1-naphthylamine]
Kd: 4 ± 0.13 µM
